Measured values published in ChEMBL document CHEMBL1144577, “1,5-Biaryl pyrrole derivatives as EP1 receptor antagonists. Structure-activity relationships of 6-substituted and 5,6-disubstituted benzoic acid derivatives” (Bioorg Med Chem Lett, 2007).
pIC50, pKi: −log10 of the molar value.

Legend:
[1] = tested on: Rattus norvegicus; test: Reversal of hypersensitivity in FCA rat model of inflammatory pain at 5 mg/kg, po; assay type: functional
[2] = target: T1, Prostaglandin E2 receptor EP1 subtype (Homo sapiens, UniProt P34995); test: Displacement of [3H]PGE2 from human recombinant EP1 receptor expressed in CHOK1 cell membrane; assay type: cell membranes, CHO-K1
T1 sequence (P34995 whole entry): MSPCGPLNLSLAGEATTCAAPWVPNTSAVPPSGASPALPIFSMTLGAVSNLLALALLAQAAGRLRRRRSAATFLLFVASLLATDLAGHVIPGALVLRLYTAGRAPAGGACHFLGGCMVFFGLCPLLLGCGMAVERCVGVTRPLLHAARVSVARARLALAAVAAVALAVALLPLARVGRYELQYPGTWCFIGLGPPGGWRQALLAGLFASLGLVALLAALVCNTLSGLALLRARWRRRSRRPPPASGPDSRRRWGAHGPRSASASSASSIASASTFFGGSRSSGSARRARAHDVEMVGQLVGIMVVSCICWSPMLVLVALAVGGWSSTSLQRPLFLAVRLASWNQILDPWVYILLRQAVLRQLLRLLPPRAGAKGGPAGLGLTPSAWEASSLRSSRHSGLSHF

[3] = tested on: Rattus norvegicus; test: Normalized AUC (0 to t) in rat at 3 mg/kg, po; assay type: ADME, organism-based; parameters: dose 3 mg/kg, route oral; settings: in vivo
[4] = Tmax in rat at 3 mg/kg, po; assay type: ADME, organism-based; parameters: dose 3 mg/kg, route oral; settings: in vivo
[5] = Cmax in rat at 3 mg/kg, po; assay type: ADME, organism-based; parameters: dose 3 mg/kg, route oral; settings: in vivo
[6] = Ratio of drug level in brain to blood in rat FCA model of inflammatory pain at 30 mg/kg, po after 2 hrs; assay type: ADME, organism-based; parameters: dose 30 mg/kg, route oral; settings: brain and blood
[7] = Drug level in brain of rat FCA model of inflammatory pain at 30 mg/kg, po after 1 hr; assay type: ADME, organism-based; parameters: dose 30 mg/kg, route oral; settings: read-out: Drug uptake
[8] = Drug level in brain of rat FCA model of inflammatory pain at 30 mg/kg, po after 24 hrs; assay type: ADME, organism-based; parameters: dose 30 mg/kg, route oral; settings: read-out: Drug uptake
[9] = Drug level in blood of rat FCA model of inflammatory pain at 30 mg/kg, po after 8 hrs; assay type: ADME, organism-based; parameters: dose 30 mg/kg, route oral; settings: read-out: Drug uptake
[10] = Drug level in blood of rat FCA model of inflammatory pain at 30 mg/kg, po after 1 hr; assay type: ADME, organism-based; parameters: dose 30 mg/kg, route oral; settings: read-out: Drug uptake
[11] = target: T2, Thromboxane A2 receptor (Homo sapiens, UniProt P21731); test: Inhibition of human recombinant TP receptor expressed in CHO cells by calcium mobilisation assay; assay type: functional, cell-based
T2 sequence (P21731 whole entry): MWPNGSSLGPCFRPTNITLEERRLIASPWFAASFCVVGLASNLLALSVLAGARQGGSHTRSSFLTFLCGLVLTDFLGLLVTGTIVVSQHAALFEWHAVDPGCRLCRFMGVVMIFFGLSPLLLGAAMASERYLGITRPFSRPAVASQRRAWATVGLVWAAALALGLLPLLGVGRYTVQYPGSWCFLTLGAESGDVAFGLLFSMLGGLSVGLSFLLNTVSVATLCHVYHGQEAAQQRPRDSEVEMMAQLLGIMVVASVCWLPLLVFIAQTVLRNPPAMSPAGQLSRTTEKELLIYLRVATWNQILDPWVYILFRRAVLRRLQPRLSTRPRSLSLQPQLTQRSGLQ

[12] = target: Prostacyclin receptor (Homo sapiens, UniProt P43119); test: Inhibition of human recombinant IP receptor expressed in CHO cells […] by calcium mobilisation assay; assay type: functional, cell-based
[13] = Drug level in blood of rat FCA model of inflammatory pain at 30 mg/kg, po after 6 hrs; assay type: ADME, organism-based; parameters: dose 30 mg/kg, route oral; settings: read-out: Drug uptake
[14] = Drug level in blood of rat FCA model of inflammatory pain at 30 mg/kg, po after 0.25 hrs; assay type: ADME, organism-based; parameters: dose 30 mg/kg, route oral; settings: read-out: Drug uptake
[15] = target: T3, Prostaglandin E2 receptor EP4 subtype (Homo sapiens, UniProt P35408); test: Binding affinity to human EP4 receptor expressed in CHO cells; assay type: cell-based
[16] = Ratio of drug level in brain to blood in rat FCA model of inflammatory pain at 30 mg/kg, po after 24 hrs; assay type: ADME, organism-based; parameters: dose 30 mg/kg, route oral; settings: brain and blood
[17] = Drug level in brain of rat FCA model of inflammatory pain at 30 mg/kg, po after 4 hrs; assay type: ADME, organism-based; parameters: dose 30 mg/kg, route oral; settings: read-out: Drug uptake
[18] = Blood clearance in rat at 1 mg/kg, iv or 3 mg/kg, po; assay type: ADME, organism-based
[19] = Ratio of drug level in brain to blood in rat FCA model of inflammatory pain at 30 mg/kg, po after 0.25 hrs; assay type: ADME, organism-based; parameters: dose 30 mg/kg, route oral; settings: brain and blood
[20] = target: T3, Prostaglandin E2 receptor EP4 subtype; test: Inhibition of human EP4 recombinant receptor expressed in CHO cells by cAMP mobilisation assay; assay type: functional, cell-based
[21] = Drug level in brain of rat FCA model of inflammatory pain at 30 mg/kg, po after 6 hrs; assay type: ADME, organism-based; parameters: dose 30 mg/kg, route oral; settings: read-out: Drug uptake
[22] = target: T1, Prostaglandin E2 receptor EP1 subtype; test: Inhibition of human recombinant EP1 receptor expressed in CHO cells by calcium mobilisation assay; assay type: functional, cell-based
[23] = Half life in rat at 1 mg/kg, iv or 3 mg/kg, po; assay type: ADME, organism-based; settings: in vivo
[24] = Drug level in brain of rat FCA model of inflammatory pain at 30 mg/kg, po after 2 hrs; assay type: ADME, organism-based; parameters: dose 30 mg/kg, route oral; settings: read-out: Drug uptake
[25] = Drug level in blood of rat FCA model of inflammatory pain at 30 mg/kg, po after 4 hrs; assay type: ADME, organism-based; parameters: dose 30 mg/kg, route oral; settings: read-out: Drug uptake
[26] = Volume of distribution in rat at 1 mg/kg, iv or 3 mg/kg, po; assay type: ADME, organism-based; settings: in vivo, read-out: Vss
[27] = Intrinsic clearance in monkey liver microsomes; assay type: ADME, Macaca mulatta, Microsome; settings: rhesus monkey
[28] = Intrinsic clearance in dog liver microsomes; assay type: ADME, Canis lupus familiaris, Microsome
[29] = Drug level in brain of rat FCA model of inflammatory pain at 30 mg/kg, po after 0.25 hrs; assay type: ADME, organism-based; parameters: dose 30 mg/kg, route oral; settings: read-out: Drug uptake
[30] = tested on: Rattus norvegicus; test: Reversal of hypersensitivity in po dosed FCA rat model of inflammatory pain; assay type: functional
[31] = Bioavailability in rat at 3 mg/kg, po; assay type: ADME, organism-based; settings: in vivo
[32] = Ratio of drug level in brain to blood in rat FCA model of inflammatory pain at 30 mg/kg, po after 1 hr; assay type: ADME, organism-based; parameters: dose 30 mg/kg, route oral; settings: brain and blood
[33] = target: T4, Prostaglandin E2 receptor EP3 subtype (Homo sapiens, UniProt P43115); test: Inhibition of human recombinant EP3 receptor expressed in CHO cells by calcium mobilisation assay; assay type: functional, cell-based
T4 sequence (P43115 whole entry): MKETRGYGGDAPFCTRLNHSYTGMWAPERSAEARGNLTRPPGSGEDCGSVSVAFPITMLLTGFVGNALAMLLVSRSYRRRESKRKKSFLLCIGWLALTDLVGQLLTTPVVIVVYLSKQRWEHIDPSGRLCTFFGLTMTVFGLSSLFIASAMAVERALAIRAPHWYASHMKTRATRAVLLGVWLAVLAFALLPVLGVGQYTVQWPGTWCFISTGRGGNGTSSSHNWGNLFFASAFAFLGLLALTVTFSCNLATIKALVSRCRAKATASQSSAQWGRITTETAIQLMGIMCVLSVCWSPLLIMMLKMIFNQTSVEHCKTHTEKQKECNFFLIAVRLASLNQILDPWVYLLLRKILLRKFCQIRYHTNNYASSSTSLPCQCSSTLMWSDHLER

[34] = Ratio of drug level in brain to blood in rat FCA model of inflammatory pain at 30 mg/kg, po after 4 hrs; assay type: ADME, organism-based; parameters: dose 30 mg/kg, route oral; settings: brain and blood
[35] = Ratio of drug level in brain to blood in rat FCA model of inflammatory pain at 30 mg/kg, po after 8 hrs; assay type: ADME, organism-based; parameters: dose 30 mg/kg, route oral; settings: brain and blood
[36] = Drug level in blood of rat FCA model of inflammatory pain at 30 mg/kg, po after 2 hrs; assay type: ADME, organism-based; parameters: dose 30 mg/kg, route oral; settings: read-out: Drug uptake
[37] = tested on: Liver microsomes; test: Intrinsic clearance in human liver microsomes; assay type: ADME, Microsome
[38] = target: Prostaglandin E2 receptor EP2 subtype (Homo sapiens, UniProt P43116); test: Inhibition of human recombinant EP2 receptor expressed in CHO cells […] by calcium mobilisation assay; assay type: functional, cell-based
[39] = target: Prostaglandin F2-alpha receptor (Homo sapiens, UniProt P43088); test: Inhibition of human recombinant FP receptor expressed in CHO cells by calcium mobilisation assay; assay type: functional, cell-based
[40] = Drug level in brain of rat FCA model of inflammatory pain at 30 mg/kg, po after 8 hrs; assay type: ADME, organism-based; parameters: dose 30 mg/kg, route oral; settings: read-out: Drug uptake
[41] = Ratio of drug level in brain to blood in rat FCA model of inflammatory pain at 30 mg/kg, po after 6 hrs; assay type: ADME, organism-based; parameters: dose 30 mg/kg, route oral; settings: brain and blood

T3 sequence (P35408 whole entry): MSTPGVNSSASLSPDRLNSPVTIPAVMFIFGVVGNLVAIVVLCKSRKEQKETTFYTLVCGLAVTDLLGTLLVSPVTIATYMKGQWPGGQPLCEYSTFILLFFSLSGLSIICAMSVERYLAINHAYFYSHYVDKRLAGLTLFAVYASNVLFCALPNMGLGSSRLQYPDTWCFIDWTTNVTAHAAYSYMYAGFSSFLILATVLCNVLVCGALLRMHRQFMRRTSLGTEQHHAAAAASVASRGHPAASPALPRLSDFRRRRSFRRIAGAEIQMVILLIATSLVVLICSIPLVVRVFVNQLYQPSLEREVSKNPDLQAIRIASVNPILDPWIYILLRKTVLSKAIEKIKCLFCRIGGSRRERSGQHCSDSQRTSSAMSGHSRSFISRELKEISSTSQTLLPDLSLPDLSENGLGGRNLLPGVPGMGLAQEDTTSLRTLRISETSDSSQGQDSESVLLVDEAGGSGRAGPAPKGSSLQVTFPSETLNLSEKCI
Chain of Prostacyclin receptor (P43119 whole entry): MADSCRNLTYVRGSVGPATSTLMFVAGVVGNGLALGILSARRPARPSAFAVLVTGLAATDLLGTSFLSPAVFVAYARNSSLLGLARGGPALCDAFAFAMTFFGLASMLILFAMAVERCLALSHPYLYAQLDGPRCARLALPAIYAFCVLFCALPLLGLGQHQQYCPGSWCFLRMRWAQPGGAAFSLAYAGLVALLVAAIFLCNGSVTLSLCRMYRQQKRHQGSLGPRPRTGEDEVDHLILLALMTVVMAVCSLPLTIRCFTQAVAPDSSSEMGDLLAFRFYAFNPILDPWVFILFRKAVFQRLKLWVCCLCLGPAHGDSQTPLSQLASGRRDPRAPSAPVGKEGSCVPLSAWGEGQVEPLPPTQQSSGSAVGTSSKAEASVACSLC
Chain of Prostaglandin E2 receptor EP2 subtype (P43116 whole entry): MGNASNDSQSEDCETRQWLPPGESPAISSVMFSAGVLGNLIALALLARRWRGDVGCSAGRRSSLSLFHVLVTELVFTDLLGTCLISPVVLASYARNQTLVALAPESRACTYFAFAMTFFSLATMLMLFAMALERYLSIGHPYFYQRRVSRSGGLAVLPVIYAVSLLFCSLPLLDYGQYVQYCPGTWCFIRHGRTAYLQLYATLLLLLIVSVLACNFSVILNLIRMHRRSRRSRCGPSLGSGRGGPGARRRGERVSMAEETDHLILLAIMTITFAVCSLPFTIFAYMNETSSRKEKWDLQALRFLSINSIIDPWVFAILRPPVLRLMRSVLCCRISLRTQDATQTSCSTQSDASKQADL
Chain of Prostaglandin F2-alpha receptor (P43088 whole entry): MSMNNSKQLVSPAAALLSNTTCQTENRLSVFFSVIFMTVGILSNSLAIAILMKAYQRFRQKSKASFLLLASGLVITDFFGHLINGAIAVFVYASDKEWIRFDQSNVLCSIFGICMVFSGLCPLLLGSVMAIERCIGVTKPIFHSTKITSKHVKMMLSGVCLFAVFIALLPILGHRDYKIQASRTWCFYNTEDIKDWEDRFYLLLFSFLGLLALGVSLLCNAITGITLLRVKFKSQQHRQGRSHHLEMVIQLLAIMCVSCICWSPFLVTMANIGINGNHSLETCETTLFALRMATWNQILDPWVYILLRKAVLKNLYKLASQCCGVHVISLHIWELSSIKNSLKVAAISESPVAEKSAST

Cc1c(N)cc(-n2c(C)ccc2-c2cc(C(F)(F)F)ccc2OCc2ccccc2)cc1C(=O)O
Activity [1]: 40% | pIC50 [2]: 8.40 | AUC/dose [3]: 31 kg·min/L | Tmax [4]: 30 min | Cmax [5]: 910 nM

Cc1c(N)cc(-n2c(C)ccc2-c2cc(Br)ccc2OCc2ccc(F)cc2)cc1C(=O)O
Activity [1]: 50% | pIC50 [2]: 9.10 | AUC/dose [3]: 52 kg·min/L | Tmax [4]: 66 min | Cmax [5]: 1350 nM

Cc1ccc(-c2cc(Br)ccc2OCc2ccccc2)n1-c1cc(C(=O)O)c2ccccc2c1
pIC50 [2]: 7.90

Cc1ccc(-c2cc(Br)ccc2OCc2ccc(F)cc2)n1-c1ccc(OC(F)F)c(C(=O)O)c1
pIC50 [2]: 8.70

Cc1ccc(-c2cc(Cl)ccc2OCc2ccccc2)n1-c1cc(C(=O)O)c2cc[nH]c2c1
pIC50 [2]: 8.90

Cc1ccc(-n2c(C)ccc2-c2cc(Br)ccc2OCc2ccc(F)cc2F)cc1C(=O)O
pIC50 [2]: 8.90

Cc1ccc(-c2cc(Cl)ccc2OCc2ccccc2)n1-c1cc(C(=O)O)c2ccccc2c1
pIC50 [2]: 8.20 | AUC/dose [3]: 9 kg·min/L | Tmax [4]: 240 min | Cmax [5]: 220 nM

Cc1ccc(-c2cc(C(F)(F)F)ccc2OCc2ccccc2)n1-c1ccc(F)c(C(=O)O)c1
Activity [1]: 56% | pIC50 [2]: 8.70 | AUC/dose [3]: 27 kg·min/L | Tmax [4]: 36 min | Cmax [5]: 870 nM

Cc1ccc(-n2c(C)ccc2-c2cc(Cl)ccc2OCc2ccc(F)cc2)cc1C(=O)O
Kp at 2 h [6]: 0.4 | concentration at 1 h [7]: 3560 nM | concentration at 24 h [8]: 31 nM | concentration at 8 h [9]: 1600 nM | concentration at 1 h [10]: 10100 nM | Activity [1]: 75% | pIC50 [11]: 7.40 | pKi [11]: 7.80 | pIC50 [12]: < 5.50 | pIC50 [2]: 8.30 | concentration at 6 h [13]: 2310 nM | concentration at 0.25 h [14]: 7360 nM | pIC50 [15]: 4.80 | pKi [15]: 5.10 | AUC/dose [3]: 18 kg·min/L | Kp at 24 h [16]: 0.5 | concentration at 4 h [17]: 1220 nM | clearance [18]: 22 mL/min/kg | Kp at 0.25 h [19]: 0.4 | pKi [20]: 5.20 | concentration at 6 h [21]: 913 nM | pKi [22]: 9.00 | half-life [23]: 276 min | concentration at 2 h [24]: 2480 nM | concentration at 4 h [25]: 3560 nM | Vd [26]: 2.6 L/kg | CL [27]: <= 3.6 ml/min/g | Tmax [4]: 30 min | CL [28]: <= 3.6 ml/min/g | concentration at 0.25 h [29]: 2600 nM | ED50 [30]: 2.5 mg/kg | bioavailability [31]: 45% | Kp at 1 h [32]: 0.4 | pKi [33]: 6.30 | Kp at 4 h [34]: 0.4 | Kp at 8 h [35]: 0.4 | concentration at 2 h [36]: 5930 nM | CL [37]: <= 3.6 ml/min/g | pIC50 [38]: < 5.50 | Cmax [5]: 590 nM | pIC50 [39]: < 5.50 | concentration at 8 h [40]: 753 nM | Kp at 6 h [41]: 0.4

CC(=O)Nc1ccc(-n2c(C)ccc2-c2cc(Br)ccc2OCc2ccc(F)cc2F)cc1C(=O)O
pIC50 [2]: 9.40

Cc1ccc(-c2cc(Br)ccc2OCc2ccc(F)cc2)n1-c1ccc(F)c(C(=O)O)c1
pIC50 [2]: 8.90

COc1ccc(-n2c(C)ccc2-c2cc(Br)ccc2OCc2ccc(F)cc2F)cc1C(=O)O
pIC50 [2]: 9.40 | AUC/dose [3]: 4 kg·min/L | Tmax [4]: 30 min | Cmax [5]: 340 nM

Cc1ccc(-c2cc(C(F)(F)F)ccc2OCc2ccc(F)cc2)n1-c1ccc(F)c(C(=O)O)c1
pIC50 [2]: 8.10

Cc1ccc(-c2cc(F)ccc2OCc2ccc(F)cc2)n1-c1cc(C(=O)O)c2ccccc2c1
pIC50 [2]: 7.60
